Results reported in patent US5430036A, “6,11-substituted-6,11-dihydrobenzo[b]quinolizinium salts and compositions and method of use thereof” (Sterling Winthrop Inc., priority 1994, dated 1995).

Key:
PCP recognition sites [1] = test: [3H]TCP radioreceptor assay (internal screen), binding to PCP recognition sites in rat whole brain membranes; set-up: species or system rat (male Sprague-Dawley); conditions: 25 min, room temperature; for Ki: approx. 1 nM [3H]TCP, mean of at least two separate determinations
Procedure: [^3 H]TCP binding to PCP recognition sites was performed as described by Vignon et al. Brain Research 1983, 280, 194-197. Male Sprague-Dawley rats were sacrificed by decapitation, and whole brains were homogenized in 10 volumes (wt/vol) of cold Tris-HCl buffer (50 mM, pH 7.7) using a Brinkmann Polytron (setting 6, 30 sec). The homogenate was centrifuged at 40,000×g for 10 min at 4° C. The supernatant was decanted, and the homogenization and centrifugation steps were repeated twice as described above. Following this, the pellet was resuspended in Tris-HCl (5 mM, pH 7.7) at a tissue concentration of 0.5-0.75 g/ml, and one ml aliquots were frozen at -70° C. until use. The binding characteristics for PCP recognition sites were not altered by the freezing of membrane suspensions.
On the day of the assay, membrane aliquots were thawed, resuspended in fresh 5 mM Tris-HCl buffer at a tissue concentration of 1 mg/ml, and stored on ice until use. Each assay tube contained 100 μl of [^3 H]TCP at a final concentration of approximately 1 nM, 100 μl of various concentrations of the compounds of interest, 500 μl of the tissue suspension and 300 μl of buffer to a final assay volume of 1 ml and a final protein concentration of 0.5 mg/tube. Non-specific binding was defined by addition of a final concentration of 100 μM PCP to blank tubes. All tubes were incubated at room temperature for 25 min before termination of the reaction by rapid filtration over Whatman GF/B glass fiber filters that had been presoaked in a solution of 0.5% polyethylenimine for at least 1 hr prior to use. Filters were washed with three 4 ml volumes of cold Tris buffer. Following addition of scintillation cocktail, the amount of bound radioactivity was determined by liquid scintillation spectrometry using a Beckman LS 5000TA liquid scintillation counter with an efficiency for tritium of approximately 55%. Inhibition constants (Ki values) were calculated using the EBDA/LIGAND program (McPherson, J. Pharmacol. Meth. 1985, 14, 213-228), purchased from Elsevier/Biosoft, Inc. Results are reported as Ki values which are expressed as the mean of at least two separate determinations; or as a percent (%) inhibition of binding at 10 μM.

PCP recognition sites [2] = test: [3H]TCP radioreceptor assay (external screen), binding to PCP recognition sites in whole rat forebrain membranes; conditions: 25° C., 60 min
Procedure: A procedure similar to that described above, for the [^3 H]TCP radioreceptor assay (internal screen) was utilized except that the whole rat forebrain membranes were incubated at 25° C. for 60 minutes rather than at room temperature for 25 minutes, before termination of the reaction. The results are reported as a percent (%) inhibition of binding at 10 μM.

[3] = system: NMDA-induced neurotoxicity in cultured cortical neurons; test: Antagonism of NMDA-induced neurotoxicity in cultured cortical neurons (LDH release); assay type: cell-based, mouse (Swiss-Webster); conditions: Mus musculus, Cortical neurone; 500 μM NMDA, 30 min exposure; LDH activity 24 h after removal of NMDA; day 13 cultured cortical neurons
Procedure: Pregnant, Swiss-Webster mice were obtained from Taconic Farms (Germantown, N.Y.) and sacrificed 16 days post conception. Fetuses were removed and placed in a sterile dish containing Hank's balanced salt solution (HBSS), pH 7.4. Brain cortices were dissected, meninges were removed, the tissue was minced and placed into a solution of HBSS containing 0.25% (w/v) trypsin at 37° C. for 15 minutes. Tissue was then triturated with a sterile pasteur pipet, diluted with minimal essential media (Gibco 330-1430), pH 7.4, supplemented with 10% horse serum, 10% fetal calf serum, 2 mM 1-glutamine, 21 mM d-glucose, 2.2 g/L sodium bicarbonate, 1000 U/ml penicillin, and 1,000 μg/ml streptomycin. Cells were plated onto Falcon primaria 96 well plates at a final density of 50,000 cells/well and incubated at 37° C. in the presence of 5% (v/v) carbon dioxide. After 5 days, plating media was replaced with maintenance media containing minimal essential media (Gibco 330-1430), pH 7.4, supplemented with 10% horse serum, 10% 1-glutamine, 21 mM d-glucose, 2.2 g/l sodium bicarbonate,1,000 U/ml penicillin, 1,000 μg/ml streptomycin, and 10 μM cytosine arabinoside. On days 7 and 10, media was replaced with maintenance media as above lacking the cytosine arabinoside. Experiments were conducted on day 13. […]

SMILES | Ki (PCP recognition sites [1]) [nM] | [3H]TCP (external screen) Percent Inhibition (%) @10 μM (PCP recognition sites [2]) [%] | further results
CC12c3ccccc3C(c3cccc[n+]31)C1C=CCC12 (centres unmarked) [12(c), 6-methyl-6,11[3',4']cyclopentenyl-6,11-dihydrobenzo[b]quinolizinium perchlorate, .1/2 H2 O] | 93.4 |  | 
c1ccc2c(c1)C1c3cccc[n+]3C2C2CCCC12 (centres unmarked) [Example 13(a), 6,11[1',2']cyclopentyl-6,11-dihydrobenzo[b]quinolizinium perchlorate.1/2 hydrate] |  |  | Ki (PCP recognition sites [1]; hydrate): 1560 nM
CC(C)(C)c1ccc(O)c2c1C1c3ccccc3C2[n+]2ccccc21 (centres unmarked) [15(c), 7-Hydroxy-10-tert-butyl-6,11-benzeno-6,11-dihydrobenzo[b]quinolizinium perchlorate] |  | 24 | [3H]TCP (internal screen) Percent Inhibition @10 μM (PCP recognition sites [1]): 10%
CC(C)=C1C=CC2C3c4ccccc4C(C12)[n+]1ccccc13 (centres unmarked) [14(b), 6,11-[5'-isopropylidene-[3',4']cyclopentenyl]-6,11-dihydrobenzo[b]quinolizinium perchlorate] | 367 |  | 
C1=CC2C3c4ccccc4C(C2CC1)[n+]1ccccc13 (centres unmarked) [Example 1, 6,11[3',4']-cyclohexenyl-6,11-dihydrobenzo[b]quinolizinium bromide] | 245 |  | 
Brc1ccc2c(c1)C1c3cccc[n+]3C2C2CC=CC12 (centres unmarked) [4(c), 9-bromo-6,11[3',4']cyclopentenyl-6,11-dihydrobenzo[b]quinolizinium bromide] | 1630 |  | 
c1ccc2c(c1)C1c3cccc[n+]3C2C2CCOC12 (centres unmarked) [Example 8, 6,11[2',3']tetrahydrofuranyl-6,11-dihydrobenzo[b]-quinolizinium bromide] | 8490 |  | 
c1ccc2c(c1)C1c3cccc[n+]3C2C2CCCC12 (centres unmarked) [Example 13(b), 6,11[1',2']cyclopentyl-6,11-dihydrobenzo[b]quinolizinium perchlorate.1/2 hydrate] |  |  | IC50 [3]: 8400 nM; Ki (PCP recognition sites [1]; hydrate): 366 nM
C1=CC2C3c4ccccc4C(C2C1)[n+]1ccccc13 (centres unmarked) [15(a), 6,11-[3',4']cyclopentenyl-6,11-dihydrobenzo[b]quinolizinium bromide] | 464 | 92 | 
O=[N+]([O-])c1cccc2c1C1c3ccccc3C2c2cccc[n+]21 (centres unmarked) [15(b), 7-Nitro-6,11-benzeno-6,11-dihydrobenzo[b]quinolizinium perchlorate] |  | 9 | [3H]TCP (internal screen) Percent Inhibition @10 μM (PCP recognition sites [1]): 37%
Fc1ccc2c(c1)C1c3cccc[n+]3C2C2CC=CC12 (centres unmarked) [5(c), 9-fluoro-6,11[3',4']cyclopentenyl-6,11-dihydrobenzo-[b]quinolizinium perchlorate] | 806 |  | 
Cc1cccc2c1C1c3ccccc3C2c2cccc[n+]21 (centres unmarked) [15(d), 7-Methyl-6,11-benzeno-6,11-dihydrobenzo[b]quinolizinium perchlorate] |  | 11 | [3H]TCP (internal screen) Percent Inhibition @10 μM (PCP recognition sites [1]): 52%
